The values that follow come from paper PMC12474180 (Toxins, 2025).

Read-outs that look alike come from different tables or passages of the source.

Data set [1] deals with MlrC.
The subject of data set [2] is MlrA.
Data set [3] concerns MlrB.
Data set [4] concerns MlrC. Conditions: Sphingomonas ACM-3962 and Sphingopyxis sp. C-1; cited from earlier work.
Data set [5] has as its system MlrC. The data set is described as follows: purified recombinant MBP-tagged MlrC (0.05 mg/L purified enzymes). Conditions: Sphingopyxis sp. m6, 30 °C, up to 6 h.
Data set [6] in a line: Sphingopyxis sp. m6 (wild-type) cells in MSM. As to conditions: Sphingopyxis sp. m6, 30 °C, up to 6 h.
For data set [7], the system named is MlrA. Briefly: purified recombinant MBP-tagged MlrA (0.05 mg/L purified enzymes). Conditions: Sphingopyxis sp. m6, 30 °C, up to 30 min.
The subject of data set [8] is MlrB. The data set is described as follows: purified recombinant MBP-tagged MlrB (0.05 mg/L purified enzymes). As to conditions: Sphingopyxis sp. m6, 30 °C, up to 6 h.
Data set [9] has as its system MlrB. Conditions: cited from earlier work.
Data set [10] deals with MlrC. The data set is described as follows: recombinant MlrC. As to conditions: cited from earlier work.
The subject of data set [11] is MlrA. As to conditions: cited from earlier work.
The subject of the next data set is MlrA, MlrB, MlrC. Briefly: Mlr enzymes of Sphingomonas sp. ACM-3962. As to conditions: cited from earlier work.
Data set [12] in a line: knockout mutant m6-ΔmlrD cells in MSM. Conditions: Sphingopyxis sp. m6, 30 °C, up to 6 h.
Data set [13] is described as follows: knockout mutant m6-ΔmlrC cells in MSM. As to conditions: Sphingopyxis sp. m6, 30 °C, up to 6 h.
Data set [14] can be described thus: knockout mutant m6-ΔmlrB cells in MSM. Conditions: Sphingopyxis sp. m6, 30 °C, up to 6 h.

Regarding `COC(Cc1ccccc1)C(C)C=C(C)C=CC(N)C(C)C(=O)O` (stereo not shown) [Adda, 3-amino-9-methoxy-2,6,8-trimethyl-10-phenyl-deca-4,6-dienoic acid], the “degrading ability of the strain” value in the data set with m6-ΔmlrD, in the data set on m6-ΔmlrC, in the data set with m6-ΔmlrB and in the data set with m6-ΔmlrA was “can all degrade” in each case. Moreover, the “Degrading ability of MlrC” value with MlrC [1] was “-”. The “Degrading ability of MlrA” value in the data set on MlrA [2] is recorded as “-”. Further, in the data set with MlrB [3], the “Degrading ability of MlrB” value is “-”.

With Adda-Glu-Mdha-Ala, the fragment found entry in the data set on MlrC [4] is “Adda”. The cleaved bond entry (with MlrC [5]; in [6]) was “Adda-Glu” each time. In addition, the not cleaved entry in the data set on MlrA [7] and in the data set with MlrB [8] was “can’t degrade” in each case.

On to Adda-Glu-Mdha-Ala-Leu-MeAsp-Arg, for which the fragment found result with MlrC [4] was “Adda”; with MlrB [9], “tetrapeptide (Adda-Glu-Mdha-Ala)”; in the data set with MlrC [10] it was “hexapeptide compound”. For the same molecule, the cleaved bond result in the data set with MlrC [5] is given as “Adda-Glu”; in [6] it was “Ala-Leu”; with MlrB [8], “Ala-Leu”. Also, in the data set with MlrA [7], the not cleaved entry is given as “can’t degrade”.

With cyclo-(Ala-Leu-MeAsp-Arg-Adda-Glu-Mdha), the fragment found entry in the data set with MlrA [11] was “linearized MC-LR (Adda-Glu-Mdha-Ala-Leu-MeAsp-Arg), first_seen”; in the data set with MlrA, MlrB, MlrC, “linearized MC-LR and tetrapeptide and Adda”; in [12], “linearized MC-LR, within 1 h and tetrapeptide and Adda”; in data set [13], “linearized MC-LR, within 1 h and tetrapeptide and Adda”; in data set [14], “linearized MC-LR, within 1 h and tetrapeptide, minor and Adda”. Besides, the not cleaved entry with MlrC [5] and in the data set with MlrB [8] was “can’t degrade” throughout. The cleaved bond result is “Arg-Adda, first_seen” in data set [6] and “Arg-Adda” in the data set with MlrA [7].
